Results taken from US8034812B2, “Imidazopyridazine derivative having kinase inhibitory activity and pharmaceutical agent thereof” (Takeda Pharmaceutical Company Limited, priority 2006, dated 2011).
pIC50: −log10 of the molar value.

How the values were obtained:
[1] = molecular target: T1, VEGFR2 intracellular domain protein (Homo sapiens, UniProt P35968); assay: Determination of vascular endothelial growth factor receptor 2 (VEGFR2) kinase inhibitory activity (AlphaScreen); type: biochemical; conditions: read-out: VEGFR2 kinase inhibitory rate
T1 construct: made in house; host or cells: SF-21 insect cells, recombinant baculovirus BAC-VEGFR2
Protocol: Human vascular endothelial growth factor receptor 2 (hereinafter to be referred to as VEGFR2) gene was cloned by PCR using cDNA Libraries Human Placenta (Clontech) as a template. The primer used for PCR was prepared from base sequence (Genbank Accession AF035121) information of VEGFR2 gene by adding a base sequence encoding flag peptide and a recognition sequence of the restriction enzyme to a base sequence (2671-4374 of Genbank Accession AF035121) encoding the VEGFR2 intracellular domain region, so that the protein contains an N-terminal Flag tag. The primer base sequence is shown below.
SF-21 cells were sown at 1×10^6 cells/mL to Sf-900II SFM medium (1 L, Invitrogen) containing 10% fetal bovine serum (trace), 50 mg/L Gentamicin (Invitrogen) and 0.1% Pluronic F-68 (Invitrogen), and shaking culture was performed using a 2 L volume Erlenmeyer flask at 27° C., 100 rpm. After culturing for 24 hrs, recombinant baculovirus BAC-VEGFR2 (13.4 mL) was added to the mixture, and the mixture was further cultured for 3 days. The culture medium was centrifuged at 2,000 rpm for 5 min to give virus-infected cells. The infected cells were washed with a phosphate buffered saline (Invitrogen), centrifuged under the same conditions, and the cells were preserved at −80° C. The cryopreserved cells were thawed in ice, suspended in buffer A (50 mM Tris buffer (30 mL, pH 7.4) containing 20% glycerol, 0.15 M NaCl) supplemented with Complete Protease Inhibitor (Boehringer), and ruptured 3 times with a Polytron homogenizer (Kinematica) at 20,000 rpm for 30 sec. The ruptured medium was clarified by centrifugation at 40,000 rpm for 30 min and filtered with a 0.45 μm filter. The filtrate was passed through a column packed with Anti-FLAG M2 Affinity Gel (4 mL, Sigma) at a flow rate of about 0.5 mL/min. The column was washed with buffer A, and eluted with buffer A containing 100 μg/mL of FLAG peptide. The eluate was concentrated with Vivaspin 20 (Vivascience) having a molecular weight cut off of 30K. The buffer of this concentrate was exchanged using NAP™ 25 column (Amersham Bioscience) equilibrated with buffer A. The fractions containing intracellular domain protein of VEGFR2 were collected, glycerol was added to the final concentration of 50% and cryopreserved at −80° C.
A test compound dissolved in dimethyl sulfoxide (DMSO) was diluted with a buffer (50 mM Tris-HCl (pH 7.5), 5 mM MgCl2, 5 mM MnCl2, 2 mM dithiothreitol, 0.01% Tween-20). To this compound solution (5 μL) was added a buffer (10 μL) containing 50 ng/mL of VEGFR2 intracellular domain protein and 250 ng/mL of biotin labeled polypeptide biotinyl-poly-Glu:Tyr (4:1) (CIS bio International). To the obtained mixture was added a buffer (10 μL) containing ATP (25 μM), the mixture was allowed to react at 25° C. for 5 min and the reaction was quenched with 25 μL of a stop solution (100 mM EDTA disodium salt, 62.5 mM HEPES buffer (pH 7.4), 250 mM NaCl, 0.1% bovine serum albumin, 10 μg/mL AlphaScreen assay streptavidin donor beads (Streptavidin Donor beads: PerkinElmer), 10 μg/mL AlphaScreen assay anti-phosphotyrosine recognition antibody PY-100 binding acceptor beads (Anti-phosphotyrosine (P-Tyr-100) Acceptor beads: PerkinElmer)). The reaction solution was allowed to stand at 25° C. for 16 hrs, and the wells were counted using a plate reader Fusion™ (PerkinElmer). The kinase inhibitory rate (%) of the test compound was calculated by the following formula: Inhibitory rate(%)=(1−(count of test compound−blank)÷(control−blank))×100

[2] = tested on: Human umbilical vein-derived vascular endothelial cells (HUVEC); assay: Vascular endothelial cell growth inhibitory test (VEGF-stimulated HUVEC, XTT); type: cell-based; conditions: 120 h, 5 days of culture
Protocol: To be specific, HUVEC was suspended in a vascular endothelial cell medium containing the aforementioned 5% bovine fetal serum and plated on a 96 well flat bottom plate by 50 μL (3000 cells) each well. After culture overnight, various concentrations of the test substance and 120 ng/mL of vascular endothelial growth factor (VEGF) were dissolved in a vascular endothelial cell medium containing 5% bovine fetal serum and added to each well by 50 μL. After 5 days of culture, a XTT reagent (Wako Pure Chemical Industries, Ltd.) was added to each well by 10 μL, and the mixture was reacted in an incubator at 37° C., 5% carbon dioxide for 2-3 hr. The absorbance at 450 nm was measured by a microtiter plate reader and the cell growth inhibitory activity was determined.

[3] = molecular target: T2, PDGFRα intracellular domain protein (Homo sapiens, UniProt P16234); assay: Determination of platelet-derived growth factor receptor α (PDGFRα) kinase inhibitory activity (AlphaScreen); type: biochemical
T2 construct: 125 ng/ml of PDGFRα intracellular domain protein (UPSTATE); purchased UPSTATE
Protocol: (§1) A test compound dissolved in dimethyl sulfoxide (DMSO) was diluted with a buffer (50 mM Tris-HCl (pH 7.5), 5 mM MgCl2, 5 mM MnCl2, 2 mM dithiothreitol, 0.01% Tween-20). To this compound solution (5 μL) was added a buffer (10 μL) containing 125 ng/ml of PDGFRα intracellular domain protein (UPSTATE) and 250 ng/mL of biotin labeled polypeptide biotinyl-poly-Glu:Tyr (4:1) (CIS bio International). At 5 min after mixing kinase enzyme and the compound and biotin labeled polypeptide, to the obtained mixture was added a buffer (10 μL) containing ATP (25 μM), the mixture was allowed to react at 25° C. for 30 min and the reaction was quenched with 25 μL of a stop solution (100 mM EDTA disodium salt, 62.5 mM HEPES buffer (pH 7.4), 250 mM NaCl, 0.1% bovine serum albumin, 10 μg/mL AlphaScreen assay streptavidin donor beads (Streptavidin Donor beads: PerkinElmer), 10 μg/mL AlphaScreen assay anti-phosphotyrosine recognition antibody PT-66 binding acceptor beads (Anti-phosphotyrosine (P-Tyr-66) Acceptor beads: PerkinElmer)). The reaction solution was allowed to stand at 25° C. for 16 hrs, and the wells were counted using a plate reader Fusion™ (PerkinElmer). The kinase inhibitory rate (%) of the test compound was calculated by the following formula: Inhibitory rate(%)=(1−(count of test compound−blank)÷(control−blank))×100
(§2) The count of the solution reacted without addition of the compound was used as a “control”, and the count of the solution without the compound and ATP was used as a “blank”.

[4] = molecular target: T3, PDGFRβ intracellular domain protein (Homo sapiens, UniProt P09619); assay: Determination of platelet-derived growth factor receptor β (PDGFRβ) kinase inhibitory activity (AlphaScreen); type: biochemical
T3 construct: 125 ng/ml of PDGFRβ intracellular domain protein (UPSTATE); purchased UPSTATE
Protocol: as §1, with “of PDGFRβ” for “of PDGFRα”, “Donor Beads:” for “Donor beads:”, “test compound[…])÷(control−blank))×100” for “test compound−blank)÷(control−blank))×100”
as §2

T2 sequence (P16234 550-1089 limits assumed): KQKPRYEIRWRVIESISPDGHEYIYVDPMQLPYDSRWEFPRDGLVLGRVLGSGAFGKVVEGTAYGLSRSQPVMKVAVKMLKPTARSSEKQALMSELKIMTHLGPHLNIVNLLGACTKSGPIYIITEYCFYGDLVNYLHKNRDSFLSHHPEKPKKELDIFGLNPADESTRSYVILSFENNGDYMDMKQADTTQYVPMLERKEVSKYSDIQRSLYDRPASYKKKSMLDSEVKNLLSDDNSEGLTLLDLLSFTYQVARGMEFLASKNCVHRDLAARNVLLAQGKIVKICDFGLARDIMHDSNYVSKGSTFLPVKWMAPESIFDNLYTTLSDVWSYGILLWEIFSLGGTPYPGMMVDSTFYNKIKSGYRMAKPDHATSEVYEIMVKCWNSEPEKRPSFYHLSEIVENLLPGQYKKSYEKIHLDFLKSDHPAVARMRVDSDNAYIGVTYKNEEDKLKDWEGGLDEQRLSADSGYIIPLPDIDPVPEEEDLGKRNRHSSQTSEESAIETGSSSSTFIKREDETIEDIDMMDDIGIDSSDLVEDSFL
T3 sequence (P09619 554-1106 limits assumed): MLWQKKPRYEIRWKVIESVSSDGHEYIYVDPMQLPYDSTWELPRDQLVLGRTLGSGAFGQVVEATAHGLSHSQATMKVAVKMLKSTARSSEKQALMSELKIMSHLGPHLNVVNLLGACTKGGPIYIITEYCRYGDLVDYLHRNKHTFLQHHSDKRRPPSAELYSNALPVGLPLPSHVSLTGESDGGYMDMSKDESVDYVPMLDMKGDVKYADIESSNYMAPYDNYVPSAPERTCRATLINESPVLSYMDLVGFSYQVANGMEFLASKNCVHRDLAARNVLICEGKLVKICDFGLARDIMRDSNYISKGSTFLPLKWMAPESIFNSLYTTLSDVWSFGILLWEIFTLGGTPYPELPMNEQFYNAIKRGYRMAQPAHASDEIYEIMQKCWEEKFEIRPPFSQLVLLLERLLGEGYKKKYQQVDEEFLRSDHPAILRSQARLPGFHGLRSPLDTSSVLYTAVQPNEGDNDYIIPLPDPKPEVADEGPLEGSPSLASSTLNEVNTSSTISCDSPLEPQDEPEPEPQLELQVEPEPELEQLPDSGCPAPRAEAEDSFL
T1 sequence (P35968 786-1356 limits assumed): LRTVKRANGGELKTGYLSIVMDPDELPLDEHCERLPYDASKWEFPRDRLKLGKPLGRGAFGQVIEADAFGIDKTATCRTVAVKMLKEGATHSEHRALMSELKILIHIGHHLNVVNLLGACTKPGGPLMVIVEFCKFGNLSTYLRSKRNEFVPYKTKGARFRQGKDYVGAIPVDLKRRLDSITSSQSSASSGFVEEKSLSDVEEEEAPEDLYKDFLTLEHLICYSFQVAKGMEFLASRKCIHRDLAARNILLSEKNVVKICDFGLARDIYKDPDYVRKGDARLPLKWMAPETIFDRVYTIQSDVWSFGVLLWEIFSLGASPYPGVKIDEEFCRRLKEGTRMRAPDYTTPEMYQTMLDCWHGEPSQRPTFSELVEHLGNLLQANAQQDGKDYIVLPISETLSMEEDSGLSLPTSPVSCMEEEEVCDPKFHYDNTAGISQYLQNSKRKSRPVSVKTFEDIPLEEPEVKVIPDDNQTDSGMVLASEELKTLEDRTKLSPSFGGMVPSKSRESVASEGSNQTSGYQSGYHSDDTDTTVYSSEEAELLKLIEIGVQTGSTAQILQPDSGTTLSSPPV

| inhibition at 1 µM [1] | pIC50 [3] | pIC50 [4] | SMILES | pIC50 [2] |
| --- | --- | --- | --- | --- |
| ≥ 90% | ≥ 6.30 | ≥ 6.30 | CCn1nccc1C(=O)Nc1cc(Oc2ccc3nc(NC(=O)C4CC4)cn3n2)ccc1F [Example 174, N-[5-({2-[(cyclopropylcarbonyl)amino]imidazo[1,2-b]pyridazin-6-yl}oxy)-2-fluorophenyl]-1-ethyl-1H-pyrazole-5-carboxamide] | ≥ 6.30 |
| ≥ 90% | – | ≥ 6.30 | CCn1cc(C(=O)Nc2cc(Oc3ccc4nc(NC(=O)C5CC5)cn4n3)ccc2Cl)c(C)n1 [Example 254, N-[2-chloro-5-({2-[(cyclopropylcarbonyl)amino]imidazo[1,2-b]pyridazin-6-yl}oxy)phenyl]-1-ethyl-3-methyl-1H-pyrazole-4-carboxamide] | ≥ 6.30 |
| ≥ 90% | – | – | Cc1cc(C(=O)Nc2cc(Oc3ccc4nc(NC(=O)C5CC5)cn4n3)ccc2C)n(C)n1 [Example 111, N-[5-({2-[(cyclopropylcarbonyl)amino]imidazo[1,2-b]pyridazin-6-yl}oxy)-2-methylphenyl]-1,3-dimethyl-1H-pyrazole-5-carboxamide] | ≥ 6.30 |
| ≥ 90% | – | ≥ 6.30 | CCNC(=O)Nc1cccc(Oc2ccc3nc(NC(=O)C4CC4)cn3n2)c1 [Example 103, N-[6-(3-{[(ethylamino)carbonyl]amino}phenoxy)imidazo[1,2-b]pyridazin-2-yl]cyclopropanecarboxamide] | ≥ 6.30 |
| ≥ 90% | ≥ 6.30 | – | O=C(Nc1cn2nc(Oc3ccc4cc[nH]c4c3)ccc2n1)C1CC1 [Example 95, N-[6-(1H-indol-6-yloxy)imidazo[1,2-b]pyridazin-2-yl]cyclopropanecarboxamide] | ≥ 6.30 |
| ≥ 90% | ≥ 6.30 | ≥ 6.30 | O=C(Nc1cccc(Oc2ccc3nc(NC(=O)C4CC4)cn3n2)c1)c1ccccc1 [Example 165, N-[3-({2-[(cyclopropylcarbonyl)amino]imidazo[1,2-b]pyridazin-6-yl}oxy)phenyl]benzamide] | ≥ 6.30 |
| ≥ 90% | – | ≥ 6.30 | Cc1cc(C(=O)Nc2cccc(Sc3ccc4nc(NC(=O)C5CC5)cn4n3)c2)n(C)n1 [Example 150, N-[3-({2-[(cyclopropylcarbonyl)amino]imidazo[1,2-b]pyridazin-6-yl}sulfanyl)phenyl]-1,3-dimethyl-1H-pyrazole-5-carboxamide] | ≥ 6.30 |
| ≥ 90% | ≥ 6.30 | ≥ 6.30 | CCn1cc(C(=O)Nc2cc(Oc3ccc4nc(NC(=O)C5CC5)cn4n3)ccc2F)c(C)n1 [Example 161, N-[5-({2-[(cyclopropylcarbonyl)amino]imidazo[1,2-b]pyridazin-6-yl}oxy)-2-fluorophenyl]-1-ethyl-3-methyl-1H-pyrazole-4-carboxamide] | ≥ 6.30 |
| ≥ 90% | – | ≥ 6.30 | COCC(=O)Nc1cn2nc(Oc3cccc(NC(=O)c4cc(C)nn4C)c3)ccc2n1 [Example 127, N-[3-({2-[(methoxyacetyl)amino]imidazo[1,2-b]pyridazin-6-yl}oxy)phenyl]-1,3-dimethyl-1H-pyrazole-5-carboxamide] | ≥ 6.30 |
| ≥ 90% | – | ≥ 6.30 | Cc1cc(C(=O)Nc2cccc(Oc3ccc4nc(NC(=O)CN(C)C)cn4n3)c2)n(C)n1 [Example 149, N-[3-({2-[(N,N-dimethylglycyl)amino]imidazo[1,2-b]pyridazin-6-yl}oxy)phenyl]-1,3-dimethyl-1H-pyrazole-5-carboxamide] | ≥ 6.30 |
| ≥ 90% | – | ≥ 6.30 | Cc1nc(C(=O)Nc2cccc(Oc3ccc4nc(NC(=O)C5CC5)cn4n3)c2)c(C)o1 [Example 117, N-[3-({2-[(cyclopropylcarbonyl)amino]imidazo[1,2-b]pyridazin-6-yl}oxy)phenyl]-2,5-dimethyl-1,3-oxazole-4-carboxamide] | ≥ 6.30 |
| ≥ 90% | – | ≥ 6.30 | Cc1nc(C)c(C(=O)Nc2cccc(Oc3ccc4nc(NC(=O)C5CC5)cn4n3)c2)s1 [Example 114, N-[3-({2-[(cyclopropylcarbonyl)amino]imidazo[1,2-b]pyridazin-6-yl}oxy)phenyl]-2,4-dimethyl-1,3-thiazole-5-carboxamide] | ≥ 6.30 |
| ≥ 90% | – | – | Cc1ccc(Oc2ccc3nc(NC(=O)C4CC4)cn3n2)cc1N [Example 108, N-[6-(3-amino-4-methylphenoxy)imidazo[1,2-b]pyridazin-2-yl]cyclopropanecarboxamide] | ≥ 6.30 |
